Where a name gives a salt, the structure may show the parent alone.
molecular target: T1, MASP-2 (CCP1-CCP2-SP) (Homo sapiens, UniProt O00187); experiment: Enzymatic Assay for MASP-2 (fluorogenic substrate); format: biochemical; details: fluorogenic substrate based on C2 cleavage site; room temperature, 20 min; 20 mM HEPES pH 7.4, 140 mM NaCl, 0.1% Tween 20
T1 construct: 15 μL of Enzyme MASP-2 (CCP1-CCP2-SP) in Assay Buffer
Protocol: The MASP-2 assay utilizes a fluorogenic substrate, based on the cleavage site for its natural substrate C2. The assay is run at room temperature in an assay buffer containing 20 mM HEPES, pH 7.4, 140 mM NaCl and 0.1% Tween 20. Assay parameters are adjusted such that the assay is linear with respect to time, enzyme, and substrate concentrations. Under these optimized assays conditions, IC50 values are equivalent to Ki values, except in a few cases of “tight binding” inhibitors. Cases of “tight binding” or possible “slow binding” inhibitors are handled by the methods described in Copeland R. A. (2013) Evaluation of Enzyme Inhibitors in Drug Discovery. 2nd Ed., John Wiley and Sons, Inc., Chapters 5-7.
The MASP-2 assay protocol is carried out as follows. Test compounds are serially diluted in DMSO and then 100 nL of each dilution is transferred to the assay plate(s). 10 μL of Assay Buffer is added, followed by 15 μL of Enzyme MASP-2 (CCP1-CCP2-SP) in Assay Buffer. 15 μL of Substrate in Assay Buffer is then added and mixed to start the reactions. After 20 min at room temperature, 15 μL of a stop solution (0.1 M acetic acid) is added, mixed and the plates are read on a SpectraMax i3x Microplate Reader and exported as Excel files. Each assay plate included a “no inhibitor” (DMSO Only) control, a “no enzyme” control and a reference inhibitor control. % Activity values=100*(average test comp. fluorescence−average “no enzyme” fluorescence)/(average “DMSO only” fluorescence−average “no enzyme” fluorescence). IC50 and Ki values are very reproducible, falling well within ±2-fold.

T1 sequence (O00187 445-686 limits assumed): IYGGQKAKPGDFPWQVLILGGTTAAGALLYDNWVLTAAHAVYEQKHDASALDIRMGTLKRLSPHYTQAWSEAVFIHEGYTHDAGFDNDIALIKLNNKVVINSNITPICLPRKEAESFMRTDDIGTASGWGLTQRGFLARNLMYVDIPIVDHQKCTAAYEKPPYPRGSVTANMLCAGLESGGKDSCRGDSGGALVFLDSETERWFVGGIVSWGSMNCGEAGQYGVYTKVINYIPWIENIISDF
T1 sequence (O00187 298-444 partner limits assumed): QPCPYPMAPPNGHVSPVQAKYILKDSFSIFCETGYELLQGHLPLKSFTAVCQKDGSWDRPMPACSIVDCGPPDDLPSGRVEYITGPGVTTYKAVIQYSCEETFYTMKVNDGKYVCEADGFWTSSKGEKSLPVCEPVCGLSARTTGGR

Compound | Ki
Cc1nc(N)ccc1CNC(=O)[C@H](C)NC(=O)[C@H]1C[C@H](Cc2cccc(C3CC3)c2)CN1 [Compound I-44, (2R,4S)—N—((S)-1-(((6-Amino-2-Methylpyridin-3-Yl)Methyl)Amino)-1-Oxopropan-2-Yl)-4-(3-Cyclopropylbenzyl)Pyrrolidine-2-Carboxamide Di-Trifluoroacetate] | < 500 nM
[2H]C([2H])([2H])n1cc(Cl)c2cc(CNC(=O)[C@H](C)NC(=O)[C@H]3C[C@H](Cc4ccccc4)CN3)cnc21 [Compound I-45, (2R,4S)-4-Benzyl-N—((S)-1-(((3-Chloro-1-(Methyl-D3)-1H-Pyrrolo[2,3-B]Pyridin-5-Yl)Methyl)Amino)-1-Oxopropan-2-Yl)Pyrrolidine-2-Carboxamide Hydrochloride] | < 500 nM
C[C@H](NC(=O)[C@H]1C[C@H](Oc2ccccc2)CN1)C(=O)NCc1cnc2c(c1)c(Cl)cn2C [Compound I-46, (2R,4S)—N—((S)-1-(((3-Chloro-1-Methyl-1H-Pyrrolo[2,3-B]Pyridin-5-Yl)Methyl)Amino)-1-Oxopropan-2-Yl)-4-Phenoxypyrrolidine-2-Carboxamide Trifluoroacetate] | < 500 nM
COC(=O)c1cccc(C[C@@H]2CN[C@@H](C(=O)N[C@@H](C)C(=O)NCc3ccc(N)nc3C)C2)c1 [Compound I-47, Methyl 3-(((3S,5R)-5-(((S)-1-(((6-Amino-2-Methylpyridin-3-Yl)Methyl)Amino)-1-Oxopropan-2-Yl)Carbamoyl)Pyrrolidin-3-Yl)Methyl)Benzoate Dihydrochloride] | < 500 nM
Cc1nc(N)ccc1CNC(=O)[C@H](C)NC(=O)[C@H]1C[C@H](Cc2cccc(C(=O)O)c2)CN1 [Compound I-48, 3-(((3S,5R)-5-(((S)-1-(((6-Amino-2-Methylpyridin-3-Yl)Methyl)Amino)-1-Oxopropan-2-Yl)Carbamoyl)Pyrrolidin-3-Yl)Methyl)Benzoic Acid Di-Trifluoroacetate] | < 500 nM
Cc1nc(N)ccc1CNC(=O)[C@H](C)NC(=O)[C@H]1C[C@H](Cc2cccc(C(=O)NCCCCl)c2)CN1 [Compound I-49, (2R,4S)—N—((S)-1-(((6-Amino-2-Methylpyridin-3-Yl)Methyl)Amino)-1-Oxopropan-2-Yl)-4-(3-((3-Chloropropyl)Carbamoyl)Benzyl)Pyrrolidine-2-Carboxamide Di-Trifluoroacetate] | < 500 nM
COC(=O)c1ccc(C[C@@H]2CN[C@@H](C(=O)N[C@@H](C)C(=O)NCc3ccc(N)nc3C)C2)cc1 [Compound I-50, Methyl 4-(((3S,5R)-5-(((S)-1-(((6-Amino-2-Methylpyridin-3-Yl)Methyl)Amino)-1-Oxopropan-2-Yl)Carbamoyl)Pyrrolidin-3-Yl)Methyl)Benzoate Dihydrochloride] | < 500 nM
Cc1nc(N)ccc1CNC(=O)[C@H](C)NC(=O)[C@H]1C[C@H](Cc2ccc(C(=O)O)cc2)CN1 [Compound I-51, 4-(((3S,5R)-5-(((S)-1-(((6-Amino-2-Methylpyridin-3-Yl)Methyl)Amino)-1-Oxopropan-2-Yl)Carbamoyl)Pyrrolidin-3-Yl)Methyl)Benzoic Acid Di-Trifluoroacetate] | < 500 nM
C[C@H](NC(=O)[C@H]1C=C(C2(c3ccccc3)CC2)CN1)C(=O)NCc1ccc(C(=N)N)cc1 [Compound I-52, (R)—N—((S)-1-((4-Carbamimidoylbenzyl)Amino)-1-Oxopropan-2-Yl)-4-(1-Phenylcyclopropyl)-2,5-Dihydro-1H-Pyrrole-2-Carboxamide Di-Trifluoroacetate] | < 500 nM
Cc1nc(N)ccc1CNC(=O)[C@H](C)NC(=O)[C@H]1C[C@H](Cc2ccn(C)c(=O)c2)CN1 [Compound I-53, (2R,4S)—N—((S)-1-(((6-Amino-2-Methylpyridin-3-Yl)Methyl)Amino)-1-Oxopropan-2-Yl)-4-((1-Methyl-2-Oxo-1,2-Dihydropyridin-4-Yl)Methyl)Pyrrolidine-2-Carboxamide Di-Trifluoroacetate] | < 500 nM
COC(=O)c1cccc(C[C@@H]2CN[C@@H](C(=O)N[C@@H](C)C(=O)NCc3ccc(C(=N)N)cc3)C2)c1 [Compound I-54, Methyl 3-(((3S,5R)-5-(((S)-1-((4-Carbamimidoylbenzyl)Amino)-1-Oxopropan-2-Yl)Carbamoyl)Pyrrolidin-3-Yl)Methyl)Benzoate Di-Trifluoroacetate] | < 500 nM
C[C@H](NC(=O)[C@H]1C[C@H](Cc2cccc(C(=O)O)c2)CN1)C(=O)NCc1ccc(C(=N)N)cc1 [Compound I-55, 3-(((3S,5R)-5-(((S)-1-((4-Carbamimidoylbenzyl)Amino)-1-Oxopropan-2-Yl)Carbamoyl)Pyrrolidin-3-Yl)Methyl)Benzoic Acid Di-Trifluoroacetate] | < 500 nM
C[C@H](NC(=O)[C@H]1C[C@H](Cc2ccnc(N)c2)CN1)C(=O)NCc1ccc(C(=N)N)cc1 [Compound I-56, (2R,4S)-4-((2-Aminopyridin-4-Yl)Methyl)-N—((S)-1-((4-Carbamimidoylbenzyl)Amino)-1-Oxopropan-2-Yl)Pyrrolidine-2-Carboxamide Di-Trifluoroacetate] | < 500 nM
Cc1nc(N)ccc1CNC(=O)[C@H](CO)NC(=O)[C@H]1C[C@H](Cc2ccccc2)CN1 [Compound I-57, (2R,4S)—N—((S)-1-(((6-Amino-2-Methylpyridin-3-Yl)Methyl)Amino)-3-Hydroxy-1-Oxopropan-2-Yl)-4-Benzylpyrrolidine-2-Carboxamide Dihydrochloride] | < 500 nM
Cc1nc(N)ccc1CNC(=O)[C@@H]1COC(=O)N1C(=O)[C@H]1C[C@H](Cc2ccccc2)CN1 [Compound I-58, (S)—N-((6-Amino-2-Methylpyridin-3-Yl)Methyl)-3-((2R,4S)-4-Benzylpyrrolidine-2-Carbonyl)-2-Oxooxazolidine-4-Carboxamide Di-Trifluoroacetate] | < 500 nM
C[C@H](NC(=O)[C@H]1C[C@H](Cc2ccccc2)CN1)C(=O)NCc1ccc2nccn2c1 [Compound I-59, (2R,4S)-4-Benzyl-N—((S)-1-((Imidazo[1,2-A]Pyridin-6-Ylmethyl)Amino)-1-Oxopropan-2-Yl Pyrrolidine-2-Carboxamide Trifluoroacetate] | > 10000 nM
C[C@H](NC(=O)[C@H]1C[C@H](Cc2ccccc2)CN1)C(=O)NCc1ccc2ncc(Cl)n2c1 [Compound I-60, (2R,4S)-4-Benzyl-N—((S)-1-(((3-Chloroimidazo[1,2-A]Pyridin-6-Yl)Methyl)Amino)-1-Oxopropan-2-Yl)Pyrrolidine-2-Carboxamide Trifluoroacetate] | > 10000 nM
Cc1nc(N)ccc1CNC(=O)[C@H]1CC(F)(F)CN1C(=O)[C@@H]1C[C@@H](Cc2ccc(Br)cc2)CN1 [Compound I-61, (R)—N-((6-Amino-2-Methylpyridin-3-Yl)Methyl)-1-((2S,4R)-4-(4-Bromobenzyl)Pyrrolidine-2-Carbonyl)-4,4-Difluoropyrrolidine-2-Carboxamide Dihydrochloride] | < 500 nM
Cc1nc(N)ccc1CNC(=O)[C@@H]1CCN1C(=O)[C@H]1C[C@H](Cc2ccc(-c3ccccc3)cc2)CN1 [Compound I-62, (S)-1-((2R,4S)-4-([1,1′-Biphenyl]-4-Ylmethyl)Pyrrolidine-2-Carbonyl)-N-((6-Amino-2-Methylpyridin-3-Yl)Methyl)Azetidine-2-Carboxamide Di-Trifluoroacetate] | < 500 nM
Cc1nc(N)ccc1CNC(=O)[C@@H]1CCN1C(=O)[C@H]1C[C@@H](c2ccccc2)CCN1 [Compound I-63, (S)—N-((6-Amino-2-Methylpyridin-3-Yl)Methyl)-1-((2R,4S)-4-Phenylpiperidine-2-Carbonyl)Azetidine-2-Carboxamide Di-Trifluoroacetate] | < 500 nM
Cc1nc(N)ccc1CNC(=O)[C@@H]1CCN1C(=O)[C@H]1C[C@H](c2cccc(-c3ccccc3)c2)CN1 [Compound I-64, (S)-1-((2R,4R)-4-([1,1′-Biphenyl]-3-Yl)Pyrrolidine-2-Carbonyl)-N-((6-Amino-2-Methylpyridin-3-Yl)Methyl)Azetidine-2-Carboxamide Di-Trifluoroacetate] | < 500 nM
Cc1nc(N)ccc1CNC(=O)[C@@H]1CCN1C(=O)[C@H]1C[C@@H](c2cccc(-c3ccccc3)c2)CCN1 [Compound I-65, (S)-1-((2R,4S)-4-([1,1′-Biphenyl]-3-Yl)Piperidine-2-Carbonyl)-N-((6-Amino-2-Methylpyridin-3-Yl)Methyl)Azetidine-2-Carboxamide Di-Trifluoroacetate] | < 500 nM
N=C(N)c1ccc(CNC(=O)[C@@H]2CCN2C(=O)[C@H]2C[C@@H](c3ccccc3)CCN2)cc1 [Compound I-66, (S)—N-(4-Carbamimidoylbenzyl)-1-((2R,4S)-4-Phenylpiperidine-2-Carbonyl)Azetidine-2-Carboxamide Trifluoroacetate] | < 500 nM
C[C@H](NC(=O)[C@H]1C[C@@H](c2ccc(F)cc2)CCN1)C(=O)NCc1ccc(C(=N)N)cc1 [Compound I-67] | < 500 nM
